In patent publication US8871807B2, “Detergents capable of cleaning, bleaching, sanitizing and/or disinfecting textiles including sulfoperoxycarboxylic acids” (Ecolab USA Inc., priority 2008, dated 2014):
Read-outs that look alike come from different tables or passages of the source.

Legend:
[1] = Contact angle study; type: physicochemical; conditions: concentrate diluted 250 times with DI water (11-SPOUA 85 times)
Description: A study was performed to measure the wetting properties of various sulfonated peracids in aqueous solutions, by measuring the contact angle of the individual solution on different surfaces.
A FTA32 Contact Angle Goniometer with image processing by FTA 32 software was used to measure the contact angle. The contact angle was measured on both stainless steel, and polypropylene surfaces. The peracid concentrates shown in the table below were diluted 250 times with DI water. However, the 11-SPOUA was diluted 85 times with DI water, given the lower levels of peracid precursor in the formula.
The results shown are the average of at least three contact angle measurements.

[2] = Coupling ability study, 1-octanoic acid by liquid chromatography; type: physicochemical; conditions: for 1-Octanoic acid (ppm) coupled: 0.4 grams 1-octanoic acid added to 20 g peracid solution in hydrogen peroxide, filtered lower phase
Description: A study was performed to determine the coupling/hydrotropic properties of various sulfonated peracids in aqueous solutions. The ability of the selected peracids to couple octanoic acid was measured.
Twenty grams (20 g) of each peracid solution was diluted into a beaker containing hydrogen peroxide. […] To each of these solutions, 0.4 grams of 1-octanoic acid was added. The octanoic acid initially floated to the tops of the solutions. The solutions were then stirred for 5-10 minutes with magnetic stir bars at 1,000 rpm. The solutions were then centrifuged for 20 minutes at 3,000-5,000 rpm. The lower phase of each solution was then collected. The lower phases were further clarified by filtration through 0.45 micron syringe filters. All of the filtrates appeared clear and homogenous. The filtered solutions were analyzed by liquid chromatography for 1-octaonic acid.

[3] = Stability of sulfonated peracids in aqueous solution, half time; type: physicochemical
Description: A study was performed to determine the stability of various sulfonated peracids in aqueous solutions. The sulfonated peracids were compared under the same controlled conditions to determine how the structural differences of the selected peracids impacted stability. The sulfonated peracids studied included both mid-chain sulfonated and terminally sulfonated peracids.
Each peracid was tested at a concentration of 50 ppm under ambient conditions. Each individual solution was prepared from the corresponding peracid concentrate by adding it to a 0.05 M pH 5.0 citrate buffer, and adjusting the final solution pH to 5.0 with the addition of a small amount of caustic.
The peracid concentration over time was measured using a kinetic iodometric titration method. For comparison, 50 ppm peroxyacetic acid (POAA), at the same concentration and under the same conditions, was also included in the stability study. Based on the results seen in FIG. 7, the half time of each individual peracid was estimated and the results are summarized in the table below.

[4] = Powder storage stability at elevated temperature; type: physicochemical; conditions: about 140° F.
Description: The compositions of the present invention also show enhanced stability compared to conventional peroxygen containing compositions. In some embodiments, the compositions of the present invention are stable for at least about 1 year at room temperature. In some embodiments, the compositions of the present invention are stable at about 100° F. for at least 30 days. In other embodiments, the compositions of the present invention are stable at about 140° F. for at least 30 days. For example, 11-sulfoundecanoic peroxyacid (Compound D) is stable as a powder system at about 140° F. for at least 30 days.

[5] = pH 4
From the text: The issue of low solubility when using long chain peracids has been addressed by increasing the pH to above 7. […] Further, bleaching efficacy decreases proportionally with every pH unit increase over about 7.

[6] = Storage stability, loss of active oxygen by titrimetry; type: physicochemical; conditions: 4 weeks
Description: The stability of a sulfoperoxycarboxylic acid of the present invention, i.e., 11-sulfoundecaneperoxoic acid (Compound D), was compared to that of phthalimidoperoxyhexanoic acid (PAP). The stability data for the PAP sample were taken from U.S. Pat. No. 5,994,284, assigned to Clariant GmbH. Samples of the compound of the present invention were stored for four (4) weeks at various temperatures. The loss of active oxygen was measured by titrimetry.

[7] = 4 weeks, data from U.S. Pat. No. 5,994,284, cited from earlier work
[8] = stated for comparison; cited from earlier work
[9] = test system: B. subtilis; experiment: Sporicidal efficacy at 14 days, EN 13704; type: cell-based; conditions: 30 ppm peroxyoctanoic acid alone; spore species not specified
Description: The test method followed was according to European Standard EN 13704: Quantitative Suspension Test for the Evaluation of Sporicidal Activity of Chemical Disinfectants and Antiseptics Used in Food, Industrial, Domestic and Institutional Areas. Generally, a test suspension of bacterial spores in a solution of interfering substance, simulating clean conditions, was added to a prepared sample of the test formulation diluted in hard water. The mixture was maintained at the specific temperature and time desired. At this contact time, an aliquot is taken; the sporicidal action in this portion was immediately neutralized or suppressed by a validated method. The number of surviving bacterial spores in each sample was determined and the reduction in viable counts was calculated. A test was run to determine the stability and sporicidal efficacy of a composition of the present invention against spores. The composition tested included the sulfonated peroleic acid product, and an amount of peroxyoctanoic acid. The test method used was the European Standard EN 13704: Quantitative Suspension Test for the Evaluation of Sporicidal Activity of Chemical Disinfectants and Antiseptics Used in Food, Industrial, Domestic and Institutional Areas, described above.

[10] = test system: Mycobacterium bovis BCG; type: cell-based; conditions: 300 ppm POOA, pH 6.5, room temperature

O=C(CCCCCCCCCCS(=O)(=O)O)OO [Compound D, 11-sulfoundecaneperoxoic acid]
Contact Angle (degree), Polypropylene [1]: 77 degree | Contact Angle (degree), Stainless Steel [1]: 72 degree | 1-Octanoic acid (ppm) coupled [2]: 890 ppm | dissolution of peracid solution in hydrogen peroxide ([2]; 20 g of peracid solution diluted into hydrogen peroxide): dissolved only partially | half-life at 50 ppm ([3]; buffer, pH 5): 91 h | stable as a powder system [4]: at least 30 days | solubility [5]: about 1.3% | Loss of Active Oxygen (%) ([6]; 38 ° C.): 7.9% | Loss of Active Oxygen (%) ([6]; 50 ° C.): 15.7% | Loss of Active Oxygen (%) ([6]; Room Temp.): 0.78%

O=C(CCCCCS(=O)(=O)O)OO [Compound 6-SPOHXA, 6-sulfoperoxyhexanoic acid]
Contact Angle (degree), Polypropylene [1]: 84 degree | Contact Angle (degree), Stainless Steel [1]: 77 degree | 1-Octanoic acid (ppm) coupled [2]: 240 ppm | half-life at 50 ppm ([3]; buffer, pH 5): 88 h

O=C(CCCCCN1C(=O)c2ccccc2C1=O)OO [PAP, phthalimidoperoxyhexanoic acid]
Loss of Active Oxygen (%) ([7]; 25 ° C.): 1.4% | Loss of Active Oxygen (%) ([7]; 40 ° C.): 2.0% | Loss of Active Oxygen (%) ([7]; 50 ° C.): 12.0%

O=C(CS(=O)(=O)O)OO [Compound 2-SPOAA, 2-Sulfoperoxyacetic acid]
Contact Angle (degree), Polypropylene [1]: 75 degree | Contact Angle (degree), Stainless Steel [1]: 77 degree | 1-Octanoic acid (ppm) coupled [2]: 160 ppm | half-life at 50 ppm ([3]; buffer, pH 5): 37 h

CC(=O)OO [POAA, peroxyacetic acid]
half-life at 50 ppm ([3]; 50 ppm peracid, 0.05 M citrate buffer pH 5.0, ambient conditions, read-out: t1/2 (converted)): 115 h | percarboxylic acid formation constant (Keq) [8]: 2.70

CCCCCCCC(=O)OO [POOA, peroxyoctanoic acid]
reduction of spores [9]: did not result in a reduction | Log Reduction ([10]; 2.5 min): 3.48 | Log Reduction ([10]; 5 min): <4.31
